Results published in the supplement of paper PMC10307832.

Tests used:
Experiment in all cases: relative viability (nuclei count vs DMSO), 5 days (fraction); higher = more cells survive
Sulindac + Bortezomib = compound: CC1=C(CC(=O)O)c2cc(F)ccc2/C1=C\c1ccc([S+](C)[O-])cc1 [Sulindac] + CC(C)C[C@H](NC(=O)[C@H](Cc1ccccc1)NC(=O)c1cnccn1)B(O)O [Bortezomib] (partner 0.002 µM)
In short: (§1)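 Relative viability equals treated-well nuclei counts divided by vehicle-well nuclei counts. Counts came from 4× images of lung cancer cell lines grown in 1536-well plates for 5 days after pin-tool dosing on the day after seeding. Dosing used one drug alone or a fixed anchor-drug dose plus five library-drug doses (not always all listed) in √10 steps, and values are medians of duplicate plates.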

Sulindac + Pictilisib = compound: CC1=C(CC(=O)O)c2cc(F)ccc2/C1=C\c1ccc([S+](C)[O-])cc1 [Sulindac] + CS(=O)(=O)N1CCN(Cc2cc3nc(-c4cccc5[nH]ncc45)nc(N4CCOCC4)c3s2)CC1 [Pictilisib] (partner 1 µM)
In short: as §1

[1] = compound: CN[C@@H]1C[C@H]2O[C@@](C)([C@@H]1OC)n1c3ccccc3c3c4c(c5c6ccccc6n2c5c31)C(=O)NC4 [Staurosporine] + N=C(N)NC(=N)NCCc1ccccc1 [Phenformin] (partner 250 µM)
In short: as §1

[2] = compound: CN[C@@H]1C[C@H]2O[C@@](C)([C@@H]1OC)n1c3ccccc3c3c4c(c5c6ccccc6n2c5c31)C(=O)NC4 [Staurosporine] + Nc1ncn([C@H]2C[C@H](O)[C@@H](CO)O2)c(=O)n1 [Decitabine] (partner 2 µM)
In short: as §1

Row | Cell Line | relative viability (Sulindac + Bortezomib; first compound 0.08 µM) | relative viability (Sulindac + Bortezomib; first compound 0.253 µM) | relative viability (Sulindac + Bortezomib; first compound 0.8 µM) | relative viability (Sulindac + Bortezomib; first compound 2.53 µM) | relative viability (Sulindac + Bortezomib; first compound 8 µM) | relative viability (Sulindac + Pictilisib; first compound 0.08 µM) | relative viability (Sulindac + Pictilisib; first compound 0.253 µM) | relative viability (Sulindac + Pictilisib; first compound 0.8 µM) | relative viability (Sulindac + Pictilisib; first compound 2.53 µM) | relative viability (Sulindac + Pictilisib; first compound 8 µM) | relative viability ([1]; first compound 0.005 µM) | relative viability ([1]; first compound 0.05 µM) | relative viability ([1]; first compound 0.1581 µM) | relative viability ([1]; first compound 0.5 µM) | relative viability ([2]; first compound 0.005 µM) | relative viability ([2]; first compound 0.05 µM) | relative viability ([2]; first compound 0.1581 µM) | relative viability ([2]; first compound 0.5 µM) | relative viability ([1]; first compound 0.01581 µM) | relative viability ([2]; first compound 0.01581 µM)
1 | 201T | 1.12 | 1.1 | 1.06 | 1.12 | 1.08 | 0.737 | 0.665 | 0.627 | 0.678 | 0.698 | 0.422 | 0.343 | 0.266 | 0.198 | 0.884 | 0.787 | 0.649 | 0.672 | – | –
2 | A549 | – | – | – | – | – | 0.573 | 0.528 | 0.327 | 0.467 | 0.857 | 0.127 | 0.0465 | 0.031 | 0.0233 | 0.348 | 0.108 | 0.0369 | 0.0407 | 0.025 | 0.239
3 | A-427 | 0.899 | 0.976 | 1.08 | 0.965 | 1.17 | 0.84 | 0.507 | 0.625 | 0.805 | 0.717 | 0.189 | 0.109 | 0.0973 | 0.123 | 0.573 | 0.282 | 0.18 | 0.149 | 0.114 | 0.448
4 | ABC-1 | 0.328 | 0.281 | 0.279 | 0.311 | 0.31 | 0.987 | 0.849 | 0.539 | 0.542 | 0.979 | 0.169 | 0.0951 | 0.0728 | 0.105 | 0.578 | 0.353 | 0.259 | 0.157 | 0.205 | 0.563
5 | BEN | 0.829 | 0.889 | 0.714 | 0.748 | 0.947 | 0.599 | 0.56 | 0.443 | 0.673 | 0.667 | 0.247 | 0.211 | 0.197 | 0.184 | 0.882 | 0.486 | 0.279 | 0.311 | – | 0.621
6 | CAL-12T | 0.999 | 1.06 | 0.852 | 0.918 | 1.26 | 0.442 | 0.374 | 0.401 | 0.324 | 0.616 | 0.205 | 0.235 | 0.103 | 0.112 | – | – | – | – | 0.165 | –
7 | COR-L23 | 1.17 | 1.14 | – | 1.2 | 1.23 | 0.987 | 0.933 | – | 0.727 | 1.07 | 0.243 | 0.14 | 0.0737 | 0.0585 | 0.362 | 0.193 | 0.092 | 0.0806 | 0.18 | 0.248
8 | COR-L 105 | 0.819 | 0.939 | 0.626 | 0.724 | 1.09 | 0.392 | 0.36 | 0.36 | 0.338 | 0.489 | 0.312 | 0.176 | 0.207 | 0.181 | 0.603 | 0.381 | 0.332 | 0.229 | 0.217 | 0.44
9 | Calu-6 | 1.11 | 1.14 | 0.915 | 1.02 | 1.13 | 1.03 | 0.989 | 0.799 | 0.949 | 1.17 | – | – | – | – | – | – | – | – | – | –
10 | ChaGo-K-1 | 1.07 | 1.1 | 0.885 | 0.882 | 1.35 | 0.808 | 0.645 | 0.74 | 0.647 | 1.45 | 0.461 | 0.351 | 0.158 | 0.123 | 0.641 | 0.544 | 0.435 | 0.432 | 0.233 | –
11 | EBC-1 | 0.585 | 0.557 | 0.56 | 0.474 | 0.663 | 0.382 | 0.422 | 0.343 | 0.342 | 0.49 | – | – | – | – | – | – | – | – | – | –
12 | EKVX | 1 | 0.999 | 0.859 | 1.04 | 1.05 | 0.409 | 0.487 | 0.381 | 0.475 | 0.516 | 0.172 | 0.159 | 0.142 | 0.118 | 0.31 | 0.202 | 0.191 | 0.18 | 0.119 | 0.271
13 | EMC-BAC-2 | 1.14 | 1.1 | 0.824 | 1.06 | 1.08 | 0.524 | 0.58 | 0.485 | 0.542 | 0.596 | 0.252 | 0.17 | 0.189 | 0.164 | 0.554 | 0.222 | 0.214 | 0.208 | 0.179 | 0.269
14 | EPLC-272H | 1.05 | – | 0.603 | 1.12 | 0.813 | 0.293 | – | 0.252 | 0.284 | 0.361 | 0.22 | 0.0721 | 0.0546 | 0.0603 | 0.367 | 0.203 | 0.102 | 0.0597 | 0.0782 | 0.193
15 | H3255 | 0.714 | 0.684 | 0.735 | 0.891 | 0.916 | 0.486 | 0.463 | 0.464 | 0.562 | 0.524 | 0.326 | 0.249 | 0.181 | 0.14 | 0.53 | 0.189 | 0.162 | 0.117 | 0.28 | 0.404
